The structures appear in SMILES notation. Inconclusive results and toxic doses are left out.

In this test the test system is L1210 leukemia ip in BDF1 mice, survival T/C. The experiment in a line: NCI In Vivo Anticancer Drug Screen. Data for tumor model L1210 Leukemia (intraperitoneal) in B6D2F1 (BDF1) mice. The conditions noted are these: higher = longer survival. In short, it runs like this: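 Survival endpoint. Drug-treated group vs vehicle group, expressed as T divided by C. Tumor passaged by transplantation.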

[1] abbreviates: endpoint: mean survival time, dose: 100.0 mg/kg/injection, schedule: Q04DX002 (ip), vehicle: Klucel (hydroxypropylcellulose) (HPC).
Setting [2] is: endpoint: mean survival time, dose: 200.0 mg/kg/injection, schedule: Q04DX002 (ip), vehicle: Klucel (hydroxypropylcellulose) (HPC).
[3] abbreviates: endpoint: mean survival time, dose: 400.0 mg/kg/injection, schedule: Q04DX002 (ip), vehicle: Klucel (hydroxypropylcellulose) (HPC).
The mark [4] stands for this setting: endpoint: mean survival time, dose: 100.0 mg/kg/injection, schedule: Q01DX001 (ip), vehicle: carboxymethylcellulose (CMC).
The mark [5] stands for this setting: endpoint: mean survival time, dose: 200.0 mg/kg/injection, schedule: Q01DX001 (ip), vehicle: carboxymethylcellulose (CMC).
Setting [6] is: endpoint: mean survival time, dose: 400.0 mg/kg/injection, schedule: Q01DX001 (ip), vehicle: carboxymethylcellulose (CMC).
The mark [7] stands for this setting: endpoint: mean survival time, dose: 100.0 mg/kg/injection, schedule: Q01DX009 (ip), vehicle: Klucel (hydroxypropylcellulose) (HPC).
[8] abbreviates: endpoint: mean survival time, dose: 200.0 mg/kg/injection, schedule: Q01DX009 (ip), vehicle: Klucel (hydroxypropylcellulose) (HPC).
Setting [9] is: endpoint: mean survival time, dose: 400.0 mg/kg/injection, schedule: Q01DX009 (ip), vehicle: Klucel (hydroxypropylcellulose) (HPC).

Turning to `O=C1Nc2ccccc2C1Cc1cc2c(nn1)[nH]c1ccccc12` (stereo not given), the T/C reads like this: (endpoint: mean survival time, dose: 12.5 mg/kg/injection, schedule: Q04DX002 (ip), vehicle: Klucel (hydroxypropylcellulose) (HPC)) 95 % of control; (endpoint: mean survival time, dose: 25.0 mg/kg/injection, schedule: Q04DX002 (ip), vehicle: Klucel (hydroxypropylcellulose) (HPC)) 106 % of control; (endpoint: mean survival time, dose: 50.0 mg/kg/injection, schedule: Q04DX002 (ip), vehicle: Klucel (hydroxypropylcellulose) (HPC)) 103 % of control; under setting [1], 122 % of control; under setting [2], 96 % of control; under setting [3], 92 % of control.
Consider `CC(=O)c1ccc(N=Nc2c(N)nc(N)[nH]c2=O)cc1`, for which the T/C was 101 % of control under setting [4], 106 % of control under setting [5] and 119 % of control under setting [6].
Consider `COc1ccc(/C=N/NC(=S)Nc2cccc3cccnc23)cc1OC`, for which the T/C is 100 % of control (endpoint: mean survival time, dose: 100.0 mg/kg/injection, schedule: Q01DX001 (ip), vehicle: saline); 94 % of control (endpoint: mean survival time, dose: 200.0 mg/kg/injection, schedule: Q01DX001 (ip), vehicle: saline); 86 % of control (endpoint: mean survival time, dose: 400.0 mg/kg/injection, schedule: Q01DX001 (ip), vehicle: saline).
As to `O=C1CCC2CN3CCc4c([nH]c5ccccc45)C3CC2C1` (stereo not given), the T/C (endpoint: mean survival time, dose: 75.0 mg/kg/injection, schedule: Q01DX001 (ip), vehicle: other) was 110 % of control.
For `NC(=S)N/N=C/c1cc(Br)cc(Br)c1O`, the T/C reads like this: under setting [1], 95 % of control; under setting [2], 91 % of control; under setting [3], 100 % of control.
`CC(C)(C)CC(C)(C)c1ccc(OCCOc2ccc(S(=O)(=O)O)cc2[N+](=O)[O-])cc1`: the T/C (endpoint: mean survival time, dose: 100.0 mg/kg/injection, schedule: Q01DX009 (ip), vehicle: saline) is 105 % of control; the T/C (endpoint: mean survival time, dose: 200.0 mg/kg/injection, schedule: Q01DX009 (ip), vehicle: saline) was 105 % of control; the T/C (endpoint: mean survival time, dose: 400.0 mg/kg/injection, schedule: Q01DX009 (ip), vehicle: saline) is 100 % of control.
As to `COC(=O)C1OC1c1ccc(OC)c(OC)c1` (stereo not given), the T/C was 95 % of control under setting [4], 97 % of control under setting [5] and 101 % of control under setting [6].
Regarding `CCOC(=O)CCCN(c1ccccc1CC(=O)OCC)S(C)(=O)=O`, the T/C reads like this: under setting [7], 103 % of control; (endpoint: mean survival time, dose: 100.0 mg/kg/injection, schedule: Q04DX003 (ip), vehicle: Klucel (hydroxypropylcellulose) (HPC)) 102 % of control; under setting [8], 94 % of control; (endpoint: mean survival time, dose: 200.0 mg/kg/injection, schedule: Q04DX003 (ip), vehicle: Klucel (hydroxypropylcellulose) (HPC)) 112 % of control; under setting [9], 97 % of control; (endpoint: mean survival time, dose: 400.0 mg/kg/injection, schedule: Q04DX003 (ip), vehicle: Klucel (hydroxypropylcellulose) (HPC)) 100 % of control.
Consider `CC(=O)N(C(C)C)C(C)C`, for which the T/C was 100 % of control (endpoint: mean survival time, dose: 0.75 mg/kg/injection, schedule: Q01DX001 (ip), vehicle: saline with Tween-80); 97 % of control (endpoint: mean survival time, dose: 1.5 mg/kg/injection, schedule: Q01DX001 (ip), vehicle: saline with Tween-80); 102 % of control (endpoint: mean survival time, dose: 3.0 mg/kg/injection, schedule: Q01DX001 (ip), vehicle: saline with Tween-80); 98 % of control (endpoint: mean survival time, dose: 3.12 mg/kg/injection, schedule: Q01DX001 (ip), vehicle: saline with Tween-80); 100 % of control (endpoint: mean survival time, dose: 12.5 mg/kg/injection, schedule: Q01DX001 (ip), vehicle: saline with Tween-80).
As to `O=C1c2ccccc2C(=O)c2c(NCCNCCO)ccc(NCCNCCO)c21`, the T/C was 204 % of control (endpoint: mean survival time, dose: 2.0 mg/kg/injection, schedule: Q01DX009 (ip), vehicle: Klucel (hydroxypropylcellulose) (HPC)); 162 % of control (endpoint: mean survival time, dose: 2.0 mg/kg/injection, schedule: Q01DX009 (ip), vehicle: saline with Tween-80); 196 % of control (endpoint: mean survival time, dose: 2.0 mg/kg/injection, schedule: Q01DX009 (ip), vehicle: water); 306 % of control (endpoint: mean survival time, dose: 4.0 mg/kg/injection, schedule: Q01DX009 (ip), vehicle: Klucel (hydroxypropylcellulose) (HPC)); 153 % of control (endpoint: mean survival time, dose: 4.0 mg/kg/injection, schedule: Q01DX009 (ip), vehicle: saline with Tween-80); 159 % of control (endpoint: mean survival time, dose: 4.0 mg/kg/injection, schedule: Q01DX009 (ip), vehicle: water). The T/C is 491 % of control (endpoint: mean survival time, dose: 8.0 mg/kg/injection, schedule: Q01DX009 (ip), vehicle: Klucel (hydroxypropylcellulose) (HPC)); 220 % of control (endpoint: mean survival time, dose: 8.0 mg/kg/injection, schedule: Q01DX009 (ip), vehicle: saline with Tween-80); 498 % of control (endpoint: mean survival time, dose: 8.0 mg/kg/injection, schedule: Q01DX009 (ip), vehicle: water); 347 % of control (endpoint: mean survival time, dose: 16.0 mg/kg/injection, schedule: Q01DX009 (ip), vehicle: Klucel (hydroxypropylcellulose) (HPC)); 253 % of control (endpoint: mean survival time, dose: 16.0 mg/kg/injection, schedule: Q01DX009 (ip), vehicle: saline with Tween-80); 396 % of control (endpoint: mean survival time, dose: 16.0 mg/kg/injection, schedule: Q01DX009 (ip), vehicle: water). Also, the T/C was 118 % of control (endpoint: mean survival time, dose: 32.0 mg/kg/injection, schedule: Q01DX009 (ip), vehicle: Klucel (hydroxypropylcellulose) (HPC)); 89 % of control (endpoint: mean survival time, dose: 32.0 mg/kg/injection, schedule: Q01DX009 (ip), vehicle: saline with Tween-80); 93 % of control (endpoint: mean survival time, dose: 32.0 mg/kg/injection, schedule: Q01DX009 (ip), vehicle: water); 90 % of control (endpoint: median survival time, dose: 8.0 mg/kg/injection, schedule: Q01DX005 (oral), vehicle: Klucel (hydroxypropylcellulose) (HPC)); 101 % of control (endpoint: median survival time, dose: 8.0 mg/kg/injection, schedule: Q01DX005 (oral), vehicle: water); 98 % of control (endpoint: median survival time, dose: 16.0 mg/kg/injection, schedule: Q01DX005 (oral), vehicle: Klucel (hydroxypropylcellulose) (HPC)). The T/C is, setting by setting: (endpoint: median survival time, dose: 16.0 mg/kg/injection, schedule: Q01DX005 (oral), vehicle: water) 101 % of control; (endpoint: median survival time, dose: 32.0 mg/kg/injection, schedule: Q01DX005 (oral), vehicle: Klucel (hydroxypropylcellulose) (HPC)) 94 % of control; (endpoint: median survival time, dose: 32.0 mg/kg/injection, schedule: Q01DX005 (oral), vehicle: water) 101 % of control; (endpoint: median survival time, dose: 64.0 mg/kg/injection, schedule: Q01DX005 (oral), vehicle: Klucel (hydroxypropylcellulose) (HPC)) 100 % of control; (endpoint: median survival time, dose: 64.0 mg/kg/injection, schedule: Q01DX005 (oral), vehicle: water) 97 % of control; (endpoint: median survival time, dose: 128.0 mg/kg/injection, schedule: Q01DX005 (oral), vehicle: Klucel (hydroxypropylcellulose) (HPC)) 94 % of control. The T/C reads like this: (endpoint: median survival time, dose: 128.0 mg/kg/injection, schedule: Q01DX005 (oral), vehicle: water) 100 % of control; (endpoint: median survival time, dose: 256.0 mg/kg/injection, schedule: Q01DX005 (oral), vehicle: Klucel (hydroxypropylcellulose) (HPC)) 98 % of control; (endpoint: median survival time, dose: 256.0 mg/kg/injection, schedule: Q01DX005 (oral), vehicle: water) 102 % of control; (endpoint: median survival time, dose: 512.0 mg/kg/injection, schedule: Q01DX005 (oral), vehicle: Klucel (hydroxypropylcellulose) (HPC)) 103 % of control; (endpoint: median survival time, dose: 512.0 mg/kg/injection, schedule: Q01DX005 (oral), vehicle: water) 106 % of control.
`CCCCCCCCOc1ccc(C=Nc2ccc(C(=O)OCC)cc2)cc1`: the T/C by setting is: under setting [7], 87 % of control; under setting [8], 92 % of control; under setting [9], 94 % of control.
In the case of `CC1SCC(NC(=O)NCCCl)CS1` (stereo not given), the T/C (endpoint: mean survival time, dose: 100.0 mg/kg/injection, schedule: Q04DX002 (ip), vehicle: gum acacia) was 103 % of control; the T/C (endpoint: mean survival time, dose: 200.0 mg/kg/injection, schedule: Q04DX002 (ip), vehicle: gum acacia) is 100 % of control; the T/C (endpoint: mean survival time, dose: 400.0 mg/kg/injection, schedule: Q04DX002 (ip), vehicle: gum acacia) is 100 % of control.
In the case of `Oc1ccc(C=NCC2CCCC[N-]2)c(O)c1.Oc1ccc(C=NCC2CCCC[N-]2)c(O)c1.[Ni+2]` (stereo not given), the T/C reads like this: (endpoint: mean survival time, dose: 100.0 mg/kg/injection, schedule: Q04DX003 (ip), vehicle: saline with Tween-80) 95 % of control; (endpoint: mean survival time, dose: 200.0 mg/kg/injection, schedule: Q04DX003 (ip), vehicle: saline with Tween-80) 87 % of control.

The record behind these values is PubChem BioAssay AID248 (DTP/NCI, 2004).
